Measurements as given in US4415577A, “Bis-sparteine derivatives and method of using same in therapy” (Kali-Chemie Pharma GmbH, priority 1980, dated 1983).
Counter-ions that a name gives are not always drawn.

Legend:
[1] = system: aconitin-induced arrhythmic effects; experiment: aconitin-induced arrhythmia test (Aconitine test), oral; format: in vivo, rat (male Wistar); conditions: for minimal effective dose: Rattus norvegicus, po, 3 h, read-out: Aconitine test, effective dose per os
Method: The influence of the novel compound on aconitin-induced arrhythmic effects is determined on male Wistar rats (weighing 280-350 g) which are treated with an aconitin infusion according to the method of Raschak (M. Raschak, Arzneim. Forschung (Drug Research) 25 (1975) pp. 639-641). The effective dose which is given in μmol/kg, is the dose which cause a significant difference in time between the starting of the aconitin-induced arrhythmic effect in animals treated with the active ingredient and the starting of this aconitin-induced effect in an untreated control group of animals. In order to be considered effective the dose must cause a significant prolongation of the period until the aconitin-induced arrhythmic effects start, and it must be effective against at least two of the aconitin-induced arrhythmic symptoms (extrasystoles, ventricular flutter, ventricular tachycardia). The test compound is applied orally inform of a 2% suspension of tylose ^R MH 50 three hours before the aconitin-infusion is started.
As a standard dose one tenth of the LD50 in mice is used. If a test compound is effective at this dose, the dose is reduced in a following test. The statistical t-test method according to Student using logarithmic values of the effective values is used for significance testing (see Lothar Sachs, Statistische Auswertungsmethoden, Springer Verlag 1969).

isolated left atria = experiment: prolongation of the functional refractory period (FRP), double stimulus method of Govier; set-up: species or system guinea pig (female albino-pirbright-white); conditions: Cavia porcellus, 0.3 h; isolated left atria of female guinea pigs, 18 minutes after application; read-out: FRP 125% (concentration causing prolongation of the functional refractory period to 125%)
[2] = acute toxicity (LD50) in mice after oral administration; format: in vivo, mouse (male NMRI); conditions: mouse, in vivo; male NMRI-mice, oral, 50% mortality on the 7th day; read-out: LD50 per os
Method: (§1) The acute toxicity of the compounds is determined in male NMRI-mice (body weight range 18-22 g) after oral (p.o) administration. The LD50 is defined as that dose in μmol/kg which causes a 50% mortality rate of the test animals on the 7th day after application. The calculation of the LD50 is carried out by probitanalysis (see L. Cavalli-Sforza, Grundbegriffe der Biometric, Gustav Fischer Verlag Stuttgart (1964).

male NMRI-mice = experiment: as above; format: in vivo, mouse (male NMRI); conditions: comparison in words
Method: as §1

## CCCCCC1C2CC(CN3CCCCC23)C2CCCCN21 (stereo not drawn) [Pentyl sparteine tartrate]
[1]
  minimal effective dose: > 180 µmol/kg
Isolated left atria
  EC (125%): 9 µM
[2]
  LD50 at 168 h: 1800 µmol/kg

## C1CCN2C[C@@H]3C[C@@H](CN4CCCC[C@@H]34)[C@H]2C1 [Sparteine sulfate]
[1]
  minimal effective dose: > 54 µmol/kg
Isolated left atria
  EC (125%): 34 µM
[2]
  LD50 at 168 h: 540 µmol/kg

## C1CCN2C[C@@H]3C[C@@H]([C@@H]([C@@H]4[C@@H]5C[C@@H](CN6CCCC[C@H]56)[C@@H]5CCCCN45)N4CCCC[C@@H]34)[C@H]2C1 [17S,17'S-bissparteine ditartrate]
[1]
  minimal effective dose: 33 µmol/kg
Isolated left atria
  EC (125%): 5 µM
[2]
  LD50 at 168 h: > 1900 µmol/kg

## C1CCN2C[C@@H]3C[C@@H]([C@@H]([C@@H]4[C@@H]5C[C@@H](CN6CCCC[C@H]56)[C@@H]5CCCCN45)N4CCCC[C@@H]34)[C@H]2C1 [17S,17'S-bissparteine]
[1]; conclusion in words from table 1
  effectiveness compared with the known tested sparteine compounds: more effective than the known tested sparteine compounds
[1]; oral, after 3 hours, same conditions for known compounds
  effect after oral application, after a period of 3 hours: retains its good effect even after a period of 3 hours
Male NMRI-mice
  toxicity compared with known sparteine derivatives: less toxic
